The test system of assay [1] is NCI-H226. The assay can be described thus: Antiproliferative activity against YAP-dependent human NCI-H226 cells incubated for 4 days by CellTiter-Glo 2.0 cell viability assay. The format is functional, cell-based. The following applies: NCI-H226, 96 h. (In general: ATP-based viability assays read luminescence as a measure of living cells.)
In assay [2] the test system is NCI-H226. In words: Antiproliferative activity against YAP-dependent human NCI-H226 cells assessed as efficacy incubated for 4 days by CellTiter-Glo 2.0 cell viability assay relative to control. The following applies: time 4 day. The format is functional.
The nature of assay [3]: Inhibition of TEAD(unknown origin)/YAP protein-protein interaction transfected in human SK-HEP1 cells incubated for 24 hrs by NanoLuc luciferase reporter assay. The format is cell-based. A general note: In a reporter assay the amount or activity of a reporter protein is the signal.

In ChEMBL document CHEMBL6103560, “MoA Studies of the TEAD P-Site Binding Ligand MSC-4106 and Its Optimization to TEAD1-Selective Amide M3686” (J Med Chem, 2025) one finds IC50 and Efficacy data, which are given here for 32 compounds.

In general, IC50 refers to the concentration needed to halve the response being measured. Higher therefore signals lower potency. Turning to `Cn1cc2c3cc(C(=O)N[C@H](CO)c4ccccn4)ccc3n(-c3ccc(C(F)(F)F)cc3)c2n1`, the IC50 in assay [1] was 191 nM; in assay [3] it was 573 nM. In addition, the Efficacy in assay [2] is given as 105%.

Turning to `Cc1snc2c1c1cc(C(=O)N3CC[C@H](O)C3)ccc1n2-c1ccc(C(F)(F)F)cc1`, the results for the IC50 in assay [1] and in assay [3] were 88 nM and 130 nM, respectively. For the same compound, in assay [2], the Efficacy was found to be 96%.

`Cn1ccc([C@H](CO)NC(=O)c2ccc3c(c2)c2nn(C)nc2n3-c2ccc(C(F)(F)F)cc2)n1`: the IC50 in assay [1] worked out at 19 nM; in assay [3], 40 nM. In addition, in assay [2], the Efficacy came to 98%.

Turning to `Cn1nc2c3cc(C(=O)O)ccc3n(-c3ccc(C(F)(F)F)cc3)c2n1`, the IC50 was 14 nM in assay [1] and 1 nM in assay [3]. For the same compound, in assay [2], the Efficacy amounted to 73%.

On to `CNC(=O)c1ccc2c(c1)c1cn(C)nc1n2-c1ccc(C(F)(F)F)cc1`, for which the IC50 in assay [1] was 94 nM; in assay [3] it was 29 nM. For the same compound, the Efficacy in assay [2] is listed as 93%.

Consider `Cn1nc2c3cc(C(=O)NC4CC4)ccc3n(-c3ccc(C(F)(F)F)cc3)c2n1`, for which the IC50 is 20 nM in assay [1] and 32 nM in assay [3]. For the same compound, the Efficacy in assay [2] is reported as 89%.

Take `C[C@@H](CO)NC(=O)c1ccc2c(c1)c1cn(C)nc1n2-c1ccc(C(F)(F)F)cc1`: the IC50 in assay [1] was determined as 42 nM; in assay [3], 146 nM. The Efficacy in assay [2] is recorded as 97%.

`Cc1snc2c1c1cc(C(=O)N[C@@H](C)CO)ccc1n2-c1ccc(C(F)(F)F)cc1`: the values for the IC50 in assay [1] and in assay [3] were 16 nM and 60 nM, respectively. In addition, in assay [2], the Efficacy was 102%.

As for `Cc1snc2c1c1cc(C(=O)N[C@H](CO)c3ccccn3)ccc1n2-c1ccc(C(F)(F)F)cc1`, the IC50 was determined as 153 nM in assay [1] and 290 nM in assay [3]. Moreover, the Efficacy in assay [2] turned out to be 112%.

For `Cn1ccc([C@@H](CO)NC(=O)c2ccc3c(c2)c2nn(C)nc2n3-c2ccc(C(F)(F)F)cc2)n1`, the IC50 is 80 nM in assay [1] and 120 nM in assay [3]. The Efficacy in assay [2] is reported as 103%.

For `C[C@@H](CO)NC(=O)c1ccc2c(c1)c1nn(C)nc1n2-c1ccc(C(F)(F)F)cc1`, the figures for the IC50 in assay [1] and in assay [3] were 35 nM and 39 nM, respectively. In addition, the Efficacy in assay [2] is 93%.

For `Cn1cc2c3cc(C(=O)NC4CC4)ccc3n(-c3ccc(C(F)(F)F)cc3)c2n1`, the figures for the IC50 in assay [1] and in assay [3] were 54 nM and 22 nM, respectively. The Efficacy in assay [2] stood at 99%.

`CCNC(=O)c1ccc2c(c1)c1cn(C)nc1n2-c1ccc(C(F)(F)F)cc1`: the results for the IC50 in assay [1] and in assay [3] were 31 nM and 13 nM, respectively.

With `Cn1nc2c3cc(C(=O)NCCO)ccc3n(-c3ccc(C(F)(F)F)cc3)c2n1`, the results for the IC50 in assay [1] and in assay [3] were 34 nM and 28 nM, respectively. In addition, the Efficacy in assay [2] is given as 94%.

Consider `C[C@H](CO)NC(=O)c1ccc2c(c1)c1nn(C)nc1n2-c1ccc(C(F)(F)F)cc1`, for which the results for the IC50 in assay [1] and in assay [3] were 16 nM and 27 nM, respectively. In addition, in assay [2], the Efficacy is 89%.

As for `Cn1ccc([C@@H](CO)NC(=O)c2ccc3c(c2)c2cn(C)nc2n3-c2ccc(C(F)(F)F)cc2)n1`, the IC50 in assay [1] is 57 nM; in assay [3] it was 61 nM. Besides, in assay [2], the Efficacy is listed as 106%.

Regarding `Cn1cc2c3cc(C(=O)N[C@@H](CO)c4ccccn4)ccc3n(-c3ccc(C(F)(F)F)cc3)c2n1`, the figures for the IC50 in assay [1] and in assay [3] were 15 nM and 16 nM, respectively. In addition, the Efficacy in assay [2] turned out to be 99%.

For `C[C@H](CO)NC(=O)c1ccc2c(c1)c1cn(C)nc1n2-c1ccc(C(F)(F)F)cc1`, the IC50 in assay [1] turned out to be 19 nM; in assay [3], 31 nM. For the same compound, in assay [2], the Efficacy amounted to 93%.

Consider `Cc1snc2c1c1cc(C(=O)NCCO)ccc1n2-c1ccc(C(F)(F)F)cc1`, for which the figures for the IC50 in assay [1] and in assay [3] were 14 nM and 20 nM, respectively. Further, in assay [2], the Efficacy stood at 103%.

In the case of `Cn1nc2c3cc(C(=O)N[C@H](CO)c4ccccn4)ccc3n(-c3ccc(C(F)(F)F)cc3)c2n1`, the values for the IC50 in assay [1] and in assay [3] were 217 nM and 156 nM, respectively. Moreover, the Efficacy in assay [2] is recorded as 102%.

For the compound `CN(C)C(=O)c1ccc2c(c1)c1cn(C)nc1n2-c1ccc(C(F)(F)F)cc1`, the IC50 was 1010 nM in assay [1] and 124 nM in assay [3]. The Efficacy in assay [2] was 99%.

As to `Cn1cc2c3cc(C(N)=O)ccc3n(-c3ccc(C(F)(F)F)cc3)c2n1`, the concentration for half-maximal inhibition (IC50) came to 66 nM in assay [1] and 48 nM in assay [3]. The Efficacy in assay [2] came to 89%.

On to `CNC(=O)c1ccc2c(c1)c1c(C)snc1n2-c1ccc(C(F)(F)F)cc1`, for which the figures for the IC50 in assay [1] and in assay [3] were 18 nM and 22 nM, respectively. In assay [2], the Efficacy is 108%.

On to `Cc1snc2c1c1cc(C(=O)N3CC[C@@H](O)C3)ccc1n2-c1ccc(C(F)(F)F)cc1`, for which the IC50 in assay [1] and in assay [3] was 133 nM each time. Besides, the Efficacy in assay [2] is reported as 105%.

As to `Cn1nc2c3cc(C(N)=O)ccc3n(-c3ccc(C(F)(F)F)cc3)c2n1`, the IC50 was determined as 80 nM in assay [1] and 18 nM in assay [3]. Also, in assay [2], the Efficacy was 95%.

As to `Cn1nc2c3cc(C(=O)N4CC[C@@H](O)C4)ccc3n(-c3ccc(C(F)(F)F)cc3)c2n1`, the IC50 stood at 59 nM in assay [1] and 56 nM in assay [3]. Also, the Efficacy in assay [2] was 90%.

In the case of `Cc1snc2c1c1cc(C(N)=O)ccc1n2-c1ccc(C(F)(F)F)cc1`, the IC50 in assay [1] was determined as 21 nM; in assay [3] it was 73 nM. In assay [2], the Efficacy came to 99%.

For the compound `CNC(=O)c1ccc2c(c1)c1nn(C)nc1n2-c1ccc(C(F)(F)F)cc1`, the IC50 was 38 nM in assay [1] and 18 nM in assay [3]. Further, the Efficacy in assay [2] is 98%.

In the case of `Cc1snc2c1c1cc(C(=O)N[C@H](C)CO)ccc1n2-c1ccc(C(F)(F)F)cc1`, the IC50 in assay [1] is 14 nM; in assay [3], 20 nM. Also, in assay [2], the Efficacy came out at 104%.

For the compound `Cn1cc2c3cc(C(=O)NCCO)ccc3n(-c3ccc(C(F)(F)F)cc3)c2n1`, the IC50 was found to be 54 nM in assay [1] and 62 nM in assay [3]. Further, the Efficacy in assay [2] was 90%.

Take `Cc1snc2c1c1cc(C(=O)NC3CC3)ccc1n2-c1ccc(C(F)(F)F)cc1`: the IC50 in assay [1] came out at 9 nM; in assay [3], 20 nM. For the same compound, the Efficacy in assay [2] was 101%.

For the compound `Cn1nc2c3cc(C(=O)N[C@@H](CO)c4ccccn4)ccc3n(-c3ccc(C(F)(F)F)cc3)c2n1`, the IC50 was 20 nM in assay [1] and 50 nM in assay [3]. Further, the Efficacy in assay [2] is recorded as 110%.
